Data reported in PubChem BioAssay (NCI).
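These data come from cells grown in 96-well plates and exposed to compound for 48 hours at five concentrations. At the GI50, growth is halved. TGI is the concentration that stops growth completely.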

Columns and labels:
Assay in all cases: growth of human tumour cells (NCI), 48 h
786-0 renal = system: 786-0 renal
CAKI-1 renal = system: CAKI-1 renal
COLO 205 colon = system: COLO 205 colon
OVCAR-5 ovarian = system: OVCAR-5 ovarian
OVCAR-8 ovarian = system: OVCAR-8 ovarian
SF-268 CNS = system: SF-268 CNS
SK-MEL-5 melanoma = system: SK-MEL-5 melanoma
SNB-75 CNS = system: SNB-75 CNS
SR leukemia = system: SR leukemia
RPMI-8226 leukemia = system: RPMI-8226 leukemia

Cc1cc(=O)[nH]c2cc(NC(=O)C(C)NC(=O)C(C)NC(=O)C(C)NC(=O)OC(C)(C)C)ccc12 (stereo not drawn)
TGI (786-0 renal): > 15 µM | TGI (CAKI-1 renal): > 15 µM | TGI (COLO 205 colon): > 15 µM | TGI (OVCAR-5 ovarian): > 15 µM | TGI (OVCAR-8 ovarian): > 15 µM | TGI (SF-268 CNS): > 15 µM | TGI (SK-MEL-5 melanoma): > 15 µM | TGI (SNB-75 CNS): > 15 µM | TGI (SR leukemia): > 15 µM

N=c1oc2cc(O)ccc2cc1C(=O)Nc1ccccn1
TGI (786-0 renal): 39.3 µM | TGI (CAKI-1 renal): > 100 µM | TGI (COLO 205 colon): 32.8 µM | TGI (OVCAR-5 ovarian): > 100 µM | TGI (OVCAR-8 ovarian): > 100 µM | TGI (RPMI-8226 leukemia): > 100 µM | TGI (SF-268 CNS): > 100 µM | TGI (SK-MEL-5 melanoma): > 100 µM | TGI (SNB-75 CNS): > 100 µM

CC1=NNC(=O)C1C1(C(=O)O)CC(c2c[nH]c3ccccc23)=NC(=S)N1 (stereo not drawn)
TGI (786-0 renal): > 100 µM | TGI (CAKI-1 renal): > 100 µM | TGI (COLO 205 colon): 34.1 µM | TGI (OVCAR-5 ovarian): > 100 µM | TGI (OVCAR-8 ovarian): > 100 µM | TGI (RPMI-8226 leukemia): 84.5 µM | TGI (SF-268 CNS): > 100 µM | TGI (SK-MEL-5 melanoma): 27.5 µM | TGI (SNB-75 CNS): 62.9 µM

COc1ccc(N2C(=O)C3ON(Cc4ccc(CC(N)=O)cc4)C(c4c5ccccc5c(C)c5ccccc45)C3C2=O)cc1 (stereo not drawn)
TGI (786-0 renal): > 100 µM | TGI (CAKI-1 renal): > 100 µM | TGI (OVCAR-5 ovarian): 83.8 µM | TGI (OVCAR-8 ovarian): > 100 µM | TGI (SF-268 CNS): > 100 µM | TGI (SNB-75 CNS): 38.1 µM | TGI (SR leukemia): 36.8 µM

O=C(COc1cc(=O)oc2ccccc12)c1ccccc1
TGI (786-0 renal): > 100 µM | TGI (CAKI-1 renal): 32.5 µM | TGI (OVCAR-5 ovarian): > 100 µM | TGI (OVCAR-8 ovarian): 93.8 µM | TGI (RPMI-8226 leukemia): > 100 µM | TGI (SF-268 CNS): > 100 µM | TGI (SK-MEL-5 melanoma): > 100 µM | TGI (SNB-75 CNS): > 100 µM | TGI (SR leukemia): > 100 µM

CCN(CC)CCC(=O)/C=C/c1ccc(Cl)c(Cl)c1
TGI (786-0 renal): > 10 µM | TGI (COLO 205 colon): > 10 µM | TGI (OVCAR-5 ovarian): > 10 µM | TGI (OVCAR-8 ovarian): > 10 µM | TGI (RPMI-8226 leukemia): 0.603 µM | TGI (SF-268 CNS): > 10 µM | TGI (SR leukemia): 9.43 µM

O=C(NC(=S)Nc1ccc(Br)cc1)c1ccc2c(c1)Sc1ccccc1O2
TGI (786-0 renal): > 100 µM | TGI (COLO 205 colon): > 100 µM | TGI (OVCAR-5 ovarian): > 100 µM | TGI (OVCAR-8 ovarian): > 100 µM | TGI (SF-268 CNS): > 100 µM | TGI (SK-MEL-5 melanoma): > 100 µM | TGI (SNB-75 CNS): 19.3 µM | TGI (SR leukemia): > 100 µM

CCC1(CC)C(=O)NC(=O)NC1=S
TGI (786-0 renal): > 100 µM | TGI (COLO 205 colon): > 100 µM | TGI (OVCAR-5 ovarian): > 100 µM | TGI (OVCAR-8 ovarian): > 100 µM | TGI (RPMI-8226 leukemia): > 100 µM | TGI (SF-268 CNS): > 100 µM | TGI (SNB-75 CNS): > 100 µM

COc1ccc(C2=C(OC(C)=O)c3cccn3-c3ccc(Cl)cc3S2)cc1
TGI (786-0 renal): > 10 µM | TGI (CAKI-1 renal): > 10 µM | TGI (COLO 205 colon): > 10 µM | TGI (OVCAR-8 ovarian): > 10 µM | TGI (RPMI-8226 leukemia): 6.21 µM | TGI (SF-268 CNS): > 10 µM | TGI (SK-MEL-5 melanoma): > 10 µM | TGI (SNB-75 CNS): > 10 µM | TGI (SR leukemia): 7.3 µM

COc1ccc(-c2c(C#N)c(N)[nH]c(=S)c2C#N)cc1
TGI (786-0 renal): 47.3 µM | TGI (CAKI-1 renal): > 100 µM | TGI (COLO 205 colon): > 100 µM | TGI (OVCAR-5 ovarian): > 100 µM | TGI (OVCAR-8 ovarian): > 100 µM | TGI (RPMI-8226 leukemia): 74.2 µM | TGI (SF-268 CNS): > 100 µM | TGI (SK-MEL-5 melanoma): > 100 µM | TGI (SR leukemia): > 100 µM

CN(C)N1C(=O)C(=O)N(c2cccc3ccccc23)C1=O
TGI (CAKI-1 renal): > 10 µM | TGI (COLO 205 colon): > 10 µM | TGI (OVCAR-5 ovarian): > 10 µM | TGI (OVCAR-8 ovarian): > 10 µM | TGI (RPMI-8226 leukemia): > 10 µM | TGI (SF-268 CNS): > 10 µM | TGI (SK-MEL-5 melanoma): > 10 µM | TGI (SNB-75 CNS): > 10 µM | TGI (SR leukemia): > 10 µM

CC1=C(C)C(=O)OC(C(C)(O)C2(O)CC3OC34C3CC(O)C56OC5C=CC(=O)C6(C)C3CCC42C)C1 (stereo not drawn)
TGI (CAKI-1 renal): 14.4 µM | TGI (COLO 205 colon): > 29 µM | TGI (OVCAR-5 ovarian): 10.4 µM | TGI (OVCAR-8 ovarian): 6.67 µM | TGI (RPMI-8226 leukemia): 5.34 µM | TGI (SF-268 CNS): 7.96 µM | TGI (SK-MEL-5 melanoma): > 24.1 µM | TGI (SNB-75 CNS): 20.3 µM

O=C1c2c(c3c4cc(F)ccc4oc3c3[nH]c4ccccc4c23)C(=O)N1O
GI50 (CAKI-1 renal): 2.09 µM | TGI (CAKI-1 renal): 9.35 µM | GI50 (COLO 205 colon): 4.15 µM | TGI (COLO 205 colon): > 100 µM | GI50 (OVCAR-5 ovarian): 38.2 µM | TGI (OVCAR-5 ovarian): > 100 µM | GI50 (OVCAR-8 ovarian): 1.82 µM | TGI (OVCAR-8 ovarian): > 100 µM | GI50 (RPMI-8226 leukemia): 1.22 µM | TGI (RPMI-8226 leukemia): 7.31 µM | GI50 (SF-268 CNS): 1.2 µM | TGI (SF-268 CNS): 25.4 µM | GI50 (SK-MEL-5 melanoma): 1.23 µM | TGI (SK-MEL-5 melanoma): 2.6 µM | GI50 (SNB-75 CNS): 0.0769 µM | TGI (SNB-75 CNS): 4.55 µM

O=C1OC(C(O)CO)C(C(O)CO)OC1=O (stereo not drawn)
TGI (786-0 renal): > 10 µM | TGI (CAKI-1 renal): > 10 µM | TGI (COLO 205 colon): > 10 µM | TGI (OVCAR-5 ovarian): > 10 µM | TGI (OVCAR-8 ovarian): > 10 µM | TGI (RPMI-8226 leukemia): > 10 µM | TGI (SF-268 CNS): > 10 µM | TGI (SK-MEL-5 melanoma): > 10 µM | TGI (SR leukemia): > 10 µM

CN1C/C(=C\c2cccs2)C2=NN(c3ccccc3)C(c3cccs3)C2C1 (stereo not drawn)
TGI (786-0 renal): > 44.7 µM | TGI (CAKI-1 renal): > 100 µM | TGI (COLO 205 colon): > 100 µM | TGI (OVCAR-5 ovarian): > 100 µM | TGI (OVCAR-8 ovarian): > 100 µM | TGI (RPMI-8226 leukemia): > 100 µM | TGI (SF-268 CNS): > 40.6 µM | TGI (SK-MEL-5 melanoma): > 100 µM | TGI (SR leukemia): > 100 µM

COc1ccc2c(c1)/C(=C\c1c(Cl)nc3n1CCS3)C(=O)N2
TGI (786-0 renal): 45.9 µM | TGI (CAKI-1 renal): > 100 µM | TGI (COLO 205 colon): 10.9 µM | TGI (OVCAR-5 ovarian): 74.1 µM | TGI (OVCAR-8 ovarian): > 100 µM | TGI (RPMI-8226 leukemia): > 100 µM | TGI (SF-268 CNS): > 100 µM | TGI (SK-MEL-5 melanoma): 17.2 µM | TGI (SNB-75 CNS): 36.5 µM

O=c1c(NCc2ccccc2)c(C2(c3ccccc3F)SCCCS2)c1=O
TGI (786-0 renal): > 100 µM | TGI (CAKI-1 renal): > 100 µM | TGI (COLO 205 colon): > 100 µM | TGI (OVCAR-5 ovarian): > 100 µM | TGI (OVCAR-8 ovarian): > 100 µM | TGI (SF-268 CNS): > 100 µM | TGI (SK-MEL-5 melanoma): > 100 µM | TGI (SNB-75 CNS): > 100 µM

Nc1nnc(N)n1N
TGI (786-0 renal): > 100 µM | TGI (CAKI-1 renal): > 100 µM | TGI (COLO 205 colon): > 100 µM | TGI (OVCAR-5 ovarian): > 100 µM | TGI (RPMI-8226 leukemia): > 100 µM | TGI (SF-268 CNS): > 100 µM | TGI (SK-MEL-5 melanoma): > 100 µM | TGI (SNB-75 CNS): > 100 µM | TGI (SR leukemia): > 100 µM

CCC(C)C(Nc1c2ccccc2nc2c(C(=O)NCCN(C)C)cccc12)C(=O)O (stereo not drawn)
TGI (786-0 renal): > 100 µM | TGI (COLO 205 colon): > 100 µM | TGI (OVCAR-5 ovarian): > 100 µM | TGI (OVCAR-8 ovarian): > 100 µM | TGI (RPMI-8226 leukemia): > 100 µM | TGI (SF-268 CNS): 39.4 µM | TGI (SK-MEL-5 melanoma): > 100 µM | TGI (SNB-75 CNS): 61.8 µM | TGI (SR leukemia): > 100 µM

COc1cc(/C=C2\C(=O)N(c3cccc(NC(C)=O)c3)C(c3ccccc3)S2(=O)=O)cc(OC)c1OC (stereo not drawn)
TGI (786-0 renal): > 100 µM | TGI (CAKI-1 renal): > 100 µM | TGI (COLO 205 colon): > 100 µM | TGI (OVCAR-5 ovarian): > 100 µM | TGI (OVCAR-8 ovarian): > 100 µM | TGI (RPMI-8226 leukemia): > 100 µM | TGI (SK-MEL-5 melanoma): > 100 µM | TGI (SNB-75 CNS): > 100 µM | TGI (SR leukemia): > 100 µM

CC1OC(NCCNCCNC2OC(C)C(O)C(O)C2O)C(O)C(O)C1O (stereo not drawn)
TGI (786-0 renal): > 100 µM | TGI (COLO 205 colon): > 100 µM | TGI (OVCAR-5 ovarian): > 100 µM | TGI (OVCAR-8 ovarian): > 100 µM | TGI (RPMI-8226 leukemia): > 100 µM | TGI (SF-268 CNS): > 100 µM | TGI (SK-MEL-5 melanoma): > 100 µM | TGI (SNB-75 CNS): > 100 µM | TGI (SR leukemia): > 100 µM

O=C1C=C(NCCc2ccc(O)c([N+](=O)[O-])c2)C(=O)c2[nH]cnc21
TGI (786-0 renal): > 100 µM | TGI (COLO 205 colon): > 100 µM | TGI (OVCAR-5 ovarian): > 100 µM | TGI (OVCAR-8 ovarian): 68.7 µM | TGI (RPMI-8226 leukemia): > 100 µM | TGI (SK-MEL-5 melanoma): 30.3 µM
